Source: patent US7342039B2, “Substituted indole oximes” (Wyeth, priority 2003, dated 2008)

Legend:
human PAI-1 = human PAI-1 (Homo sapiens, UniProt P05121); test: Assay for determining the IC50 of inhibition of PAI-1 (antibody detection of active PAI-1 bound to tPA-coated plate); format: binding; conditions: human PAI-1 50 ng/ml, pH 7.5
Method: Assay for determining the IC50 of inhibition of PAI-1. This assay is based upon the non-SDS dissociable interaction between tPA and active PAI-1. Assay plates are initially coated with human tPA (10 μg/ml). Test compounds are dissolved in DMSO at 10 mM, then diluted with physiologic buffer (pH 7.5) to a final concentration of 1-50 μM. The test compounds are incubated with human PAI-1 (50 ng/ml) for 15 minutes at room temperature. The tPA-coated plate is washed with a solution of 0.05% Tween 20 and 0.1% BSA, then the plate is blocked with a solution of 3% BSA. An aliquot of the test compound/PAI-1 solution is then added to the tPA-coated plate, incubated at room temperature for 1 hour, and washed. Active PAI-1 bound to the plate is assessed by adding an aliquot of a 1:1000 dilution of the 33B8 monoclonal antibody against human PAI-1, and incubating the plate at room temperature for 1 hour (Molecular Innovations, Royal Oak, Mich.). The plate is again washed, and a solution of goat anti-mouse IgG-alkaline phosphatase conjugate is added at a 1:50,000 dilution in goat serum. The plate is incubated 30 minutes at room temperature, washed, and a solution of alkaline phosphatase substrate is added. The plate is incubated 45 minutes at room temperature, and color development is determined at OD405 nm. The quantitation of active PAI-1 bound to tPA at varying concentrations of the test compound is used to determine the IC50. Results are analyzed using a logarithmic best-fit equation. The assay sensitivity is 5 ng/ml of human PAI-1 as determined from a standard curve ranging from 0-100 ng/ml.

[1] = biological target: T1, recombinant human plasminogen activator inhibitor-1 (PAI-1) (Homo sapiens, UniProt P05121); test: Screening for PAI-1 inhibition (chromogenic residual tPA activity, Spectrozyme-tPA); format: biochemical; conditions: 25 μM test compound; 140 nM PAI-1, 70 nM tPA, pH 6.6
T1 construct: purchased Molecular Innovations, Royal Oak, Mich
Method: Screening for PAI-1 inhibition. Test compounds are dissolved in DMSO at a final concentration of 10 mM, then diluted 100× in physiologic buffer. The inhibitory assay is initiated by the addition of the test compound (1-100 μM final concentration, maximum DMSO concentration of 0.2%) in a pH 6.6 buffer containing 140 nM recombinant human plasminogen activator inhibitor-1 (PAI-1; Molecular Innovations, Royal Oak, Mich.). Following a 1 hour incubation at room temperature, 70 nM of recombinant human tissue plasminogen activator (tPA) is added, and the combination of the test compound, PAI-1 and tPA is incubated for an additional 30 minutes. Following the second incubation, Spectrozyme-tPA (American Diagnostica, Greenwich, Conn.), a chromogenic substrate for tPA, is added and absorbance read at 405 nm at 0 and 60 minutes. Relative PAI-1 inhibition is equal to the residual tPA activity in the presence of the test compounds and PAI-1. Control treatments include the complete inhibition of tPA by PAI-1 at the molar ratio employed (2:1), and the absence of any effect of the test compound on tPA alone.

Sequence of human PAI-1 (P05121 24-402): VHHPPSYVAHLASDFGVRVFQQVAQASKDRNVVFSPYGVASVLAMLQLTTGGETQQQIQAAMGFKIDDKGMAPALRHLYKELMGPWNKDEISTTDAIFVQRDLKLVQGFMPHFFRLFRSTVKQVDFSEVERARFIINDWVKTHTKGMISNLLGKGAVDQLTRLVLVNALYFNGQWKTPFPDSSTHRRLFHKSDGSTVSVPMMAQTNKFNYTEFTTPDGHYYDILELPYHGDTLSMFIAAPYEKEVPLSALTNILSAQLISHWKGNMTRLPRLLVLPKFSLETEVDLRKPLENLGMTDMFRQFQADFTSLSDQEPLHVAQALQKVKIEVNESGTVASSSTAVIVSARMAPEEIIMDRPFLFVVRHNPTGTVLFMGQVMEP
T1 sequence (P05121 24-402): as above

IC50 (human PAI-1)	melting point	inhibition at 25 µM [1]	Compound
11.8 µM			CC(C)(C)c1ccc(C(=O)Nc2cc(OCCCO/N=C/c3cn(Cc4ccccc4)c4ccccc34)ccc2C(=O)O)cc1 [Compound 1, 4-[3-({[(1E)-(1-benzyl-1H-indol-3-yl)methylidene]amino}oxy)propoxy]-2-[(4-tert-butylbenzoyl)amino]benzoic acid]
21.6 µM			O=C(O)c1ccc(OCCCO/N=C/c2cn(Cc3ccccc3)c3ccccc23)cc1O [Compound 2, 4-[3-({[(1E)-(1-benzyl-1H-indol-3-yl)methylidene]amino}oxy)propoxy]-2-hydroxybenzoic acid]
29.2 µM			O=C(O)c1ccc(CO/N=C/c2cn(Cc3ccccc3)c3ccccc23)cc1Br [Compound 3, 4-[({[(1E)-(1-benzyl-1H-indol-3-yl)methylidene]amino}oxy)methyl]-2-bromobenzoic acid]
12.3 µM	148 to 149 °C		O=C(O)c1ccc(CO/N=C/c2cc3ccccc3n2Cc2ccccc2)cc1Br [Compound 4, 4-[({[(1E)-(1-benzyl-1H-indol-2-yl)methylidene]amino}oxy)methyl]-2-bromobenzoic acid]
22.4 µM	175 to 176 °C (dec.)		O=C(O)c1ccc(OCCCO/N=C/c2cc3ccccc3n2Cc2ccccc2)cc1O [Compound 5, 4-[3-({[(1E)-(1-benzyl-1H-indol-2-yl)methylidene]amino}oxy)propoxy]-2-hydroxybenzoic acid]
	193 to 194 °C	55%	O=C(O)c1ccc(OCCCO/N=C/c2cn(Cc3ccccc3)c3ccccc23)c(-c2ccc(C(F)(F)F)cc2)c1 [Compound 6, 6-[3-({[(1E)-(1-benzyl-1H-indol-3-yl)methylidene]amino}oxy)propoxy]-4′-(trifluoromethyl)-1,1′-biphenyl-3-carboxylic acid]
		54%	Cc1c(/C=N/OCCCOc2ccc(CC(=O)O)cc2)c2ccccc2n1C [Compound 7, {4-[3-({[(1E)-(1,2-dimethyl-1H-indol-3-yl)methylidene]amino}oxy)propoxy]phenyl}acetic acid]
	196 to 197 °C	100%	O=C(O)c1ccc(OCCCO/N=C/c2cc3ccccc3n2Cc2ccccc2)c(-c2ccc(C(F)(F)F)cc2)c1 [Compound 8, 6-[3-({[(1E)-(1-benzyl-1H-indol-2-yl)methylidene]amino}oxy)propoxy]-4′-(trifluoromethyl)-1,1′-biphenyl-3-carboxylic acid]
	165 to 166 °C	34%	Cc1c(/C=N/OCc2ccc(C(=O)O)c(Br)c2)c2ccccc2n1C [Compound 9, 2-bromo-4-[({[(1E)-(1,2-dimethyl-1H-indol-3-yl)methylidene]amino}oxy)methyl]benzoic acid]
